{
  "source": "patent US20120328549A1",
  "about": "“OIL COMPOSITIONS” (ANTERIOS, INC., priority 2011, published 2012)",
  "test_system": "Axillary Sweating",
  "experiment": "Clinical study of axillary sweating by gravimetric sweat measurement, double-blind versus placebo (water)",
  "type": "in vivo, human",
  "excerpt": "The purpose of the study was to determine if Labrafac® Lipophile WL 1349 is biologically active in reducing sweating. […] Some subjects received treatment with the potentially biologically active substance and some subjects received treatment with a placebo, i.e. water. Neither the subject nor the investigator knew which treatment the subject was receiving.\nTwo weeks after a single treatment, subjects were re-assessed by gravimetric sweat measurement to determine the degree of sweat reduction. A comparison of post-treatment sweat production between the treatment groups was made to determine the degree of sweat reduction by the potentially biologically active substance.\n• able to understand and give written informed consent • ages 18-70 years of age • diagnosis of moderate to severe primary axillary hyperhidrosis • Hyperhidrosis Disease Severity Scale score of >3 (the HDSS scale is described below) • >50 mg of sweat production/axilla in 5 minutes as measured gravimetrically • willingness to use only over-the-counter deodorants during the course of the study • willingness to shave underarms prior to each study visit • female subjects must have a negative urine pregnancy test and be non-lactating at the initial (“Baseline”) study site visit • patients should be in good general health as determined by the investigator and free of any disease that may interfere with study evaluations\nThe sweat production of the subject is measured gravimetrically by the following procedure: • The subject was placed in a room with relatively constant temperature and humidity for at least 30 min. • The subject was placed in a semi-reclining position with the axilla fully exposed and the arm resting comfortably above the head. • The subject's axilla was dried gently with a cotton gauze pad. • The investigator used a forceps to place one filter paper (90 mm diameter) on a balance sensitive to 0.1 mg and recorded its weight. • The investigator used a forceps to place the measured filter paper on the axilla, covered it with plastic and taped the edges of the bag against the subject's skin with hypoallergenic tape to form a seal around the plastic bag. • After 5 minutes, the investigator gently removed the tape and plastic from the subject's axilla and then, using forceps, immediately placed the filter paper onto the scale to record its weight. The scale was then dried and zero balanced. • This measurement was then repeated as described above with the other axilla.\nIf the subject was eligible for treatment on this basis, the subject was then treated. For treatment, one of the study preparations (0.3 mL/axilla) was applied topically with a gloved finger by the investigator to the subject's skin of the axilla. The preparation was administered in small increments to avoid run-off. The liquid was rubbed-in until vanished. […]\nThe subject was scheduled for a follow-up office visit two weeks after the treatment. At the follow-up office visit, the subject was questioned as to their compliance with the instructions regarding which medications not to use between treatment and the two week follow-up office visit. […] If the subject was compliant, the subject was re-assessed using the gravimetric sweat measurement procedure.\nThe study was conducted at multiple study sites and conducted in compliance with Good Clinical Practice standards. […] Two weeks after the treatment, each subject was re-assessed by gravimetric sweat measurement. […]",
  "data": [
    {"smiles": "CCCCCCCCCCCCCC(=O)OC(C)C", "note": "[Isopropyl Myristate]", "values": [
      {"measurement": "greater effectiveness in reducing sweat production than subjects treated with placebo", "setting": "1.89 mg per axilla topical, based on share of subjects with at least 30% reduction", "value": 191, "unit": "%"},
      {"measurement": "conclusion on activity in reducing sweat production", "setting": "1.89 mg per axilla topical, two weeks after treatment", "value": "biologically active in reducing sweat production"},
      {"measurement": "percent of subjects with at least a 30% reduction in sweat production compared to Baseline", "setting": "1.89 mg per axilla topical, two weeks after treatment, control group 29%", "value": 55, "unit": "%"},
      {"measurement": "greater reduction in sweat production than the subjects in the control group", "setting": "1.89 mg per axilla topical, two weeks after treatment, versus placebo (53 mg reduction)", "value": 195, "unit": "%"},
      {"measurement": "reduction in sweat production (average) as measured by gravimetric sweat measurement", "setting": "subjects with primary axillary hyperhidrosis, single topical treatment, 1.89 mg per axilla, two weeks after treatment, 5 minute collection", "value": 103, "unit": "mg"}
    ]}
  ]
}
